# In patent US11639350B2, “Heteroaryldihydropyrimidine derivatives and methods of treating hepatitis B infections” (Janssen Pharmaceutica NV, priority 2018, dated 2023):
# Legend:
# [1] = Cytotoxicity determination in HepG2.2.15 cells (CCK-8); type: cell-based; settings: human, 6 days of compound treatment, CCK-8, highest concentration 100 μM
# Procedure: (§1) HBV replication inhibition by the compounds of this invention as well as cytotoxicity determination was determined in cells infected or transfected with HBV, or cells with stably integrated HBV, such as HepG2.2.15 cells (Sells et al. 1987). The method used herein is as follows.
# (§2) The HepG2.2.15 cells were seeded into 96-well plate in 2% FBS (Fetal bovine serum) culture medium at the density of 40,000 cells/well and 5,000 cells/well for HBV inhibitory activity and cytotoxicity determination, respectively. After seeding, the cell plates were incubated at 37° C., 5% CO2 overnight. The next day, medium containing compounds were added to treat the cells for 6 days with medium refreshed once in the middle of the treatment. Eight dose points with 3 folds dilution of each compound were adopted and the highest concentration of the compounds was 10 μM and 100 μM for HBV inhibitory activity and cytotoxicity determination, respectively.
# After 6 days of compounds treatment, 20 μl CCK-8 (Cell Counting Kit-8 (Tianjin Biolite company)) reagents were added to each well of cytotoxicity assay plates, the plate was incubated at 37° C., 5% CO2 for 2.5 hours and the absorbance at 450 nm wavelength was measured, at the same time the absorbance at 630 nm wavelength was read as reference.
# (§3) EC50 and CC50 values are calculated by the GraphPad Prism software and are averages where multiple measurements were made. EC50 values for the other exemplified compounds were either not measured or higher than 1 μM.
# HBV = HBV inhibitory activity: HBV DNA in the culture medium of HepG2.2.15 cells by q-PCR; type: cell-based; settings: Hepatitis B virus, HepG2.2.15, 144 h, HepG2.2.15 cells, 6 days of compound treatment, HBV DNA in culture medium by q-PCR, highest concentration 10 μM; read-out: EC50
# Procedure: as §1, §2
# The HBV DAN change in the cell culture medium induced by the compounds was measured by q-PCR (quantitative polymerase chain reaction) method. The HBV DNA in the culture medium was extracted using QIAamp 96 DNA Blood Kit according to the manual and then quantified by q-PCR using the primers and probe in the table below: […]
# as §3
Compound,CC50 at 6 days [1],EC50 (HBV)
"COC(=O)C1=C(C2CCN(S(=O)(=O)[C@H]3C[C@H](C(=O)O)C3)CC2)NC(c2nccs2)=NC1c1cccc(F)c1Br (relative stereo) [Compound 439B, (trans)-3-((4-(6-(2-Bromo-3-fluorophenyl)-5-(methoxycarbonyl)-2-(thiazol-2-yl)-3,6-dihydropyrimidin-4-yl)piperidin-1-yl)sulfonyl)cyclobutanecarboxylic Acid]",53800 nM,66 nM
"COC(=O)C1=C(C2CCN(S(=O)(=O)[C@H]3CC[C@H](CC(=O)O)CC3)CC2)NC(c2nccs2)=NC1c1ccc(F)cc1Cl (relative stereo) [Compound 476A, (trans)-2-(4-((4-(6-(2-Chloro-4-fluorophenyl)-5-(methoxycarbonyl)-2-(thiazol-2-yl)-3,6-dihydropyrimidin-4-yl)piperidin-1-yl)sulfonyl)cyclohexyl)acetic Acid]",30400 nM,14 nM
"COC(=O)C1=C(C2CCN(S(=O)(=O)[C@H]3CC[C@@H](CC(=O)O)CC3)CC2)NC(c2nccs2)=NC1c1ccc(F)cc1Cl (relative stereo) [Compound 476B, (cis)-2-(4-((4-(6-(2-Chloro-4-fluorophenyl)-5-(methoxycarbonyl)-2-(thiazol-2-yl)-3,6-dihydropyrimidin-4-yl)piperidin-1-yl)sulfonyl)cyclohexyl)acetic Acid]",30200 nM,44 nM
"COC(=O)C1=C(C2CCN(S(=O)(=O)[C@H]3CC[C@H](CC(=O)O)CC3)CC2)NC(c2nccs2)=NC1c1ccc(F)c(F)c1Cl (relative stereo) [Compound 478A, (trans)-2-(4-((4-(6-(2-Chloro-3,4-difluorophenyl)-5-(methoxycarbonyl)-2-(thiazol-2-yl)-3,6-dihydropyrimidin-4-yl)piperidin-1-yl)sulfonyl)cyclohexyl)acetic Acid]",9900 nM,21 nM
"COC(=O)C1=C(C2CCN(C(C)=O)CC2)NC(c2nccs2)=NC1c1ccc(F)cc1Cl (single isomer, unassigned) [Compound 2B, Methyl 6-(1-acetylpiperidin-4-yl)-4-(2-chloro-4-fluorophenyl)-2-(thiazol-2-yl)-1,4-dihydropyrimidine-5-carboxylate]",> 100000 nM,338 nM
"COC(=O)C1=C(C2CCN(C)C(=O)C2)NC(c2nccs2)=NC1c1cccc(F)c1Cl (single isomer, unassigned) [Compound 4B, Methyl 4-(2-chloro-3-fluorophenyl)-6-(1-methyl-2-oxopiperidin-4-yl)-2-(thiazol-2-yl)-1,4-dihydropyrimidine-5-carboxylate]",> 10000 nM,351 nM
"COC(=O)C1=C([C@H]2CC[C@H](C(=O)OC)CC2)NC(c2nccs2)=NC1c1cccc(F)c1Cl (single isomer, unassigned) [Compound 16X, Methyl 4-(2-chloro-3-fluorophenyl)-6-(trans-4-(methoxycarbonyl)-cyclohexyl)-2-(thiazol-2-yl)-1,4-dihydropyrimidine-5-carboxylate]",29300 nM,49 nM
"COC(=O)C1=C([C@H]2CC[C@H](C(=O)O)CC2)NC(c2nccs2)=NC1c1ccc(F)cc1Cl (single isomer, unassigned) [Compound 19, trans-4-(6-(2-Chloro-4-fluorophenyl)-5-(methoxycarbonyl)-2-(thiazol-2-yl)-3,6-dihydropyrimidin-4-yl)cyclohexanecarboxylic Acid]",8700 nM,62 nM
"CCOC(=O)C1=C([C@H]2CC[C@H](C(=O)OC)CC2)NC(c2nccs2)=NC1c1ccc(F)cc1Cl (single isomer, unassigned) [Compound 20X, Ethyl 4-(2-chloro-4-fluorophenyl)-6-(trans-4-(methoxycarbonyl)-cyclohexyl)-2-(thiazol-2-yl)-1,4-dihydropyrimidine-5-carboxylate]",27200 nM,52 nM
"CCOC(=O)C1=C([C@H]2CC[C@H](C(=O)O)CC2)NC(c2nccs2)=NC1c1ccc(F)cc1Cl (single isomer, unassigned) [Compound 21, trans-4-(6-(2-Chloro-4-fluorophenyl)-5-(ethoxycarbonyl)-2-(thiazol-2-yl)-3,6-dihydropyrimidin-4-yl)cyclohexanecarboxylic Acid]",9900 nM,31 nM
"CCOC(=O)C1=C([C@H]2CC[C@H](C(=O)O)CC2)NC(c2nccs2)=NC1c1cccc(F)c1Cl (single isomer, unassigned) [Compound 23, trans-4-(6-(2-Chloro-3-fluorophenyl)-5-(ethoxycarbonyl)-2-(thiazol-2-yl)-3,6-dihydropyrimidin-4-yl)cyclohexanecarboxylic Acid]",47500 nM,566 nM
"COC(=O)C1=C([C@H]2CCC[C@@H](C(=O)OC)C2)NC(c2nccs2)=NC1c1cccc(F)c1Cl (single isomer, unassigned) [Compound 24Q, cis-Methyl 4-(2-chloro-3-fluorophenyl)-6-(3-(methoxycarbonyl)-cyclohexyl)-2-(thiazol-2-yl)-1,4-dihydropyrimidine-5-carboxylate]",3520 nM,964 nM
"COC(=O)C1=C(C2C3CCC2CN(S(C)(=O)=O)C3)NC(c2nccs2)=NC1c1cccc(F)c1Cl (single isomer, unassigned) [Compound 37B, Methyl 4-(2-chloro-3-fluorophenyl)-6-(3-(methylsulfonyl)-3-azabicyclo[3.2.1]octan-8-yl)-2-(thiazol-2-yl)-1,4-dihydropyrimidine-5-carboxylate]",5900 nM,129 nM
"COC(=O)C1=C(C2CC3CCC(C2)N3S(C)(=O)=O)NC(c2nccs2)=NC1c1ccc(F)cc1Cl (single isomer, unassigned) [Compound 38B, 4-(2-Chloro-4-fluoro-phenyl)-6-(8-methanesulfonyl-8-aza-bicyclo[3.2.1]oct-3-yl)-2-thiazol-2-yl-1,4-dihydro-pyrimidine-5-carboxylic Acid Methyl Ester]",34100 nM,239 nM
"COC(=O)C1=C(C2CC3CCC(C2)N3S(C)(=O)=O)NC(c2nccs2)=NC1c1cccc(F)c1Cl (single isomer, unassigned) [Compound 39B, 4-(2-Chloro-3-fluoro-phenyl)-6-(8-methanesulfonyl-8-aza-bicyclo[3.2.1]oct-3-yl)-2-thiazol-2-yl-1,4-dihydro-pyrimidine-5-carboxylic Acid Methyl Ester]",30600 nM,101 nM
"CCOC(=O)C1=C(C2[C@H]3CN(S(C)(=O)=O)C[C@@H]23)NC(c2nccs2)=NC1c1ccc(F)cc1Cl (single isomer, unassigned) [Compound 41A]",11600 nM,514 nM
"CCOC(=O)C1=C(C2CCCCC2)NC(c2nccs2)=NC1c1ccc(F)cc1Cl (single isomer, unassigned) [Compound 47A, Ethyl 4-(2-chloro-4-fluorophenyl)-6-cyclohexyl-2-(thiazol-2-yl)-1,4-dihydro-pyrimidine-5-carboxylate]",30900 nM,276 nM
"COC(=O)C1=C(C2CCCCO2)NC(c2nccs2)=NC1c1ccc(F)cc1Cl (single isomer, unassigned) [Compound 49C, Methyl 4-(2-chloro-4-fluorophenyl)-6-(tetrahydro-2H-pyran-2-yl)-2-(thiazol-2-yl)-1,4-dihydropyrimidine-5-carboxylate]",84600 nM,202 nM
"COC(=O)C1=C(C2CCOCC2)NC(c2nccs2)=NC1c1cccc(F)c1Cl (single isomer, unassigned) [Compound 50B, 4-(2-Chloro-3-fluoro-phenyl)-6-(tetrahydro-pyran-4-yl)-2-thiazol-2-yl-1,4-dihydro-pyrimidine-5-carboxylic acid methyl ester]",35600 nM,270 nM
"COC(=O)C1=C(C2CCOCC2)NC(c2nccs2)=NC1c1ccc(F)cc1Cl (single isomer, unassigned) [Compound 51B, Methyl 4-(2-chloro-4-fluorophenyl)-6-(tetrahydro-2H-pyran-4-yl)-2-(thiazol-2-yl)-1,4-dihydropyrimidine-5-carboxylate]",> 100000 nM,467 nM
"COC(=O)C1=C(C2CCN(S(C)(=O)=O)CC2)NC(c2c(F)cc(F)cc2F)=NC1c1ccc(F)cc1Cl (single isomer, unassigned) [Compound 54A, Methyl 4-(2-chloro-4-fluorophenyl)-6-(1-(methylsulfonyl)piperidin-4-yl)-2-(2,4,6-trifluorophenyl)-1,4-dihydropyrimidine-5-carboxylate]",31200 nM,19 nM
"CCOC(=O)C1=C(C2CCN(S(C)(=O)=O)CC2)NC(c2ncc(F)cc2F)=NC1c1ccc(F)cc1Cl (single isomer, unassigned) [Compound 56A, Ethyl 4-(2-chloro-4-fluorophenyl)-2-(3,5-difluoropyridin-2-yl)-6-(1-(methylsulfonyl)piperidin-4-yl)-1,4-dihydropyrimidine-5-carboxylate]",> 10000 nM,513 nM
